{
  "source": "patent US9339486B2",
  "about": "“Heterocyclic modulators of cannabinoid receptors” (THE CLEVELAND CLINIC FOUNDATION, priority 2008, dated 2016)",
  "key": {"nerve-ligation model": {"tested_on": "nerve-ligation model", "experiment": "Assessment of mechanical allodynia in rats, L5/6 spinal-nerve ligation, von Frey (IP or IT)", "type": "in vivo, rat", "method": "All experiments were performed on male Sprague-Dawley rats (200-250 g). Rats were housed individually in plastic cages with soft bedding at room temperature and maintained on a 12-hour light-dark cycle with free access to food and water.\nNeuropathic pain was induced following the methods of Kim and Chung. Kim S H, Chung J M. An experimental model for peripheral neuropathy produced by segmental spinal nerve ligation in the rat. Pain 1992; 50:355-63. Rats were anesthetized and placed prone under a microsurgical apparatus. A midline incision was made on the back, and the right paraspinal muscles were separated from the spinous processes at the L4-S2 levels. The L6 transverse process was carefully removed, and the L4/5 spinal nerves were identified. The L5 nerve was tightly ligated with a 6-0 silk suture. The right L6 spinal nerve was then located just caudal and medial to the sacroiliac junction and tightly ligated with a silk suture.\nTwo weeks later after spinal nerve ligation, Intrathecal catheters (PE-10 tubing) was inserted into the rats while they were anesthetized with isoflurane, as described by Yaksh and Rudy. Yaksh T L, Rudy T A. Chronic catheterization of the spinal subarachnoid space. Physiology & Behavior 1976; 17:1031-6. A midline incision was made on the back of the neck. The muscle was freed at the attachment to the skull exposing the cisternal membrane. The membrane was opened with a stab blade and an 8.5 cm polyethylene (PE-10) catheter was then inserted through the cisternal opening, and passed carefully and caudally into the intrathecal space at the L1-L3 spinal segments. The end of the catheter was tunneled through the subcutaneous space over the frontal bones, flushed with 10 μl saline, and then plugged with a short length of wire. Animal testing was performed 5-7 days after intrathecal catheter placement.\nTo assess mechanical allodynia, the mechanical paw withdrawal threshold was measured with a series of von Frey hairs (range 0.4-15 g). Rats were placed in elevated Perspex enclosures (28 cm×15 cm×18 cm) with wire mesh bases and given 15-20 min to acclimatize to the testing environment. Rats will be allowed to acclimatize for 30 min in a clear plastic cage with a wire mesh bottom. The calibrated von Frey filament fibers were applied to the hindpaw briefly for 6 seconds to determine the paw withdrawal threshold before and after drug injection (intraperitoneally or intrathecally). A series of von Frey filaments with exponentially incremental stiffness (0.4, 0.7, 1.2, 2.0, 3.6, 5.5, 8.5 and 15 g) were used to measure the 50% threshold for hindpaw withdrawal in awake, unrestrained rats. Chaplan S R, Bach F W, Pogrel J W, Chung J M, Yaksh T L. Quantitative assessment of tactile allodynia in the rat paw. Journal of Neuroscience Methods 1994; 53:55-63. Brisk paw withdrawal from the pressure of a filament gently bent against the plantar paw was defined as a positive response, and absence of withdrawal within 6 s as a negative response. Filaments were touched to the hindpaw in sequential ascending or descending order until the threshold of response is crossed (allowing about 10 s between each increment of the von Frey filaments). Each time the threshold is crossed, the direction of stimulus presentation was reversed and the procedure will be resumed. Four responses were collected after the first threshold detection, and the 50% withdrawal thresholds were interpolated. In cases where response thresholds fell outside the range of detection, 15.00 and 0.25 g were, respectively, assigned for continuous negative or positive responses to the limit of stimuli.\nThe compound of Example 3 was prepared in dimethyl sulfoxide (DMSO)."}, "[1]": {"tested_on": "paclitaxel-induced neuropathy", "experiment": "Prevention of neuropathy induced by paclitaxel", "type": "in vivo, rat", "method": "A mixture of saline and CREMOPHOR® ELP 10% was used as vehicle for paclitaxel. It was injected at a concentration of 1.0 mg/kg intraperitoneally to the chemotherapy-treated group of rats on 4 consecutive days for a final cumulative dose of 4 mg/kg to 18 rats.\nPaw withdrawal thresholds were determined daily in both hind paws of each animal using calibrated von Frey monofilaments according to an up-down procedure. A series of von Frey filaments with exponentially incremental degrees of stiffness (0.4, 0.7, 1.2, 2.0, 3.6, 5.5, 8.5, and 15.1 g) was used to measure the 50% threshold for both hindpaw withdrawal in awake, unrestrained rats. Chaplan, S. R., Quantitative assessment of tactile allodynia in the rat paw, Journal of Neuroscience Methods, 1994, 53:55-63. Brisk paw withdrawal from the pressure of a filament gently bent against the plantar surface of the paw was defined as a positive response, and absence of withdrawal within 6 sec was considered a negative response. The series of filaments touched the hindpaw in sequential ascending or descending order of stiffness until the threshold of response was crossed (allowing about 10 sec between each increment). Each time the threshold was crossed, the direction of stimulus presentation was reversed and the procedure resumed. Four responses were collected after the first threshold detection, and the 50% withdrawal thresholds was interpolated. In cases in which the response thresholds fall outside the range of detection, 15.1 and 0.25 g were assigned for continuous negative or positive responses, respectively, to the limits of stimulation. FIG. 17 and FIG. 18 show results from these experiments and that peripheral neuropathy started to develop within a few days. FIG. 18 reflects that a plateau was reached by the 10th day.\nGroup 1 of rats received paclitaxel for four days, as described immediately above in subpart (A) titled “Paclitaxel-induced Neuropathy.” In group 2, a dose of 15 mg/kg of the compound of Example 3, injected intraperitoneally was administered 30 minutes prior to the administration of paclitaxel. In group 3, vehicle of the compound of Example 3 was administered 30 min prior to the administration of paclitaxel. Paw withdrawal thresholds were determined daily in both hind paws of each animal using calibrated von Frey monofilaments according to an up-down procedure as described immediately above in subpart (A) titled “Paclitaxel-induced Neuropathy.” The results are shown in FIG. 17.\nFIGS. 19A and 19B show results from an experiment in which three groups of rats were administered 0.25 mL of the compound of Example 3 or the vehicle, a mixture of NMP, propylene glycol, chromophore ELP (25%, 25%, 10%) in sterile water 30 min prior to the administration of paclitaxel. Two of the three experimental groups continued to receive either the vehicle or the compound of Example 3 daily for 11 more days."}},
  "data": [
    {"molecule": "CC1(Cc2ccccc2)COc2cc(C(=O)N3CCCCC3)ccc21", "note": "(centres unmarked) [Example 3, 3-benzyl-3-methyl-2,3-dihydrobenzofuran-6-carboxylic acid-piperidine amide]", "values": [
      {"measurement": "mechanical paw withdrawal threshold maintained", "setting": "nerve-ligation model; IP 30 mg/kg", "value": 15, "unit": "g"},
      {"measurement": "time of peak effect following IP administration", "setting": "nerve-ligation model; IP 30 mg/kg", "value": "≤ 5", "unit": "min"},
      {"measurement": "effect on mechanical paw withdrawal threshold", "setting": "nerve-ligation model; IP 30 mg/kg in 0.5 ml", "value": "increase in mechanical paw withdrawal threshold"},
      {"measurement": "duration of high threshold", "setting": "nerve-ligation model; IP 30 mg/kg, 2-h observation period", "value": "> 2", "unit": "h"},
      {"measurement": "behavioral abnormalities or side effects", "setting": "nerve-ligation model; IT administration", "value": "No behavioral abnormalities or side effects were noted"},
      {"measurement": "effect on mechanical paw withdrawal threshold", "setting": "nerve-ligation model; IT administration", "value": "increase in mechanical paw withdrawal threshold"},
      {"measurement": "duration of increase in mechanical paw withdrawal threshold", "setting": "nerve-ligation model; IT administration, 90-min observation period", "value": "≥ 90", "unit": "min"},
      {"measurement": "development of paclitaxel-evoked mechano-allodynia", "setting": "[1]; 15 mg/kg for 4 days only", "value": "did not prevent but significantly prevented the severity"},
      {"measurement": "prevention of paclitaxel-induced neuropathy, share of rats", "setting": "[1]; administered for 14 days (4 days concomitant with paclitaxel and further 10 days)", "value": 100, "unit": "%"},
      {"measurement": "prevention of paclitaxel-induced neuropathy", "setting": "[1]; administered for four days only", "value": "short-lived prevention"},
      {"measurement": "development of paclitaxel-evoked mechano-allodynia", "setting": "[1]; continued 15 mg/kg IP daily", "value": "completely prevented"}
    ]}
  ]
}
